target: T1, human αVβ6 (Homo sapiens, UniProt P06756+P18564); experiment: human αVβ6 HTRF binding assay
T1 construct: purchased R & D systems 3817-AV
Protocol: All binding assays used the HTRF (homogeneous time resolved fluorescence) technology from Cisbio International, therefore all assays are described as HTRF binding assays. The assay results for the Examples are listed above together with the characterization data. The HTRF binding assays are established for the following integrins: human αVβ6, human αVβ1, human αVβ3, human αVβ5, and human αVβ8. All assays used the following assay buffer: 20 mM Tris, pH 7.4, 1 mM MgCl2, 1 mM MnCl2, 0.01% Tween 20, and 0.01% BSA. Alternatively, a SPA-based assay was used for evaluation of receptor binding.
[…]

T1 sequence (P06756 31-992 limits assumed): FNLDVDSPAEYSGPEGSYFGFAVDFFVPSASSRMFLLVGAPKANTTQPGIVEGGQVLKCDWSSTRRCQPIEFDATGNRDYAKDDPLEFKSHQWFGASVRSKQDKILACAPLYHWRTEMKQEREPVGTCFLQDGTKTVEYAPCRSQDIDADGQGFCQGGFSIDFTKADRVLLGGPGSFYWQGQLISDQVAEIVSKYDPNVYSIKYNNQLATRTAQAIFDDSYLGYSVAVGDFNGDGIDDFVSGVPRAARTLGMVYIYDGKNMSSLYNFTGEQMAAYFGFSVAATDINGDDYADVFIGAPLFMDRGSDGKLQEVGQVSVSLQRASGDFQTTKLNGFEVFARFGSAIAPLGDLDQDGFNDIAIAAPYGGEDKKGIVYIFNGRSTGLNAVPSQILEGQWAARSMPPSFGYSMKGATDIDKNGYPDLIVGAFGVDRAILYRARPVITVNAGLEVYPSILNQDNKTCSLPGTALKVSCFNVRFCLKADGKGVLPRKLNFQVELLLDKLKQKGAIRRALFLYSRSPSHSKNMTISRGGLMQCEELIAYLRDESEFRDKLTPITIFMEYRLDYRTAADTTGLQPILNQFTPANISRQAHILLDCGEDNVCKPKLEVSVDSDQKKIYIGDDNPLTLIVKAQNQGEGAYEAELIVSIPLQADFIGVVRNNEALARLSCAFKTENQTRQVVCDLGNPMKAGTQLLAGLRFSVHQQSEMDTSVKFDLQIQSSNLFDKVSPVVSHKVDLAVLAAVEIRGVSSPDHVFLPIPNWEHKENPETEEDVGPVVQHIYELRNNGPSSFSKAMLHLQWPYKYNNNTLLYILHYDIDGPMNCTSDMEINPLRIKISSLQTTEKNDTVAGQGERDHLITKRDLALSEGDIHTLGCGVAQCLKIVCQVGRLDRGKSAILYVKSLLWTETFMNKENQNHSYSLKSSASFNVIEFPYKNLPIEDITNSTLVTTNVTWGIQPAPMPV
T1 sequence (P18564 22-707 limits assumed): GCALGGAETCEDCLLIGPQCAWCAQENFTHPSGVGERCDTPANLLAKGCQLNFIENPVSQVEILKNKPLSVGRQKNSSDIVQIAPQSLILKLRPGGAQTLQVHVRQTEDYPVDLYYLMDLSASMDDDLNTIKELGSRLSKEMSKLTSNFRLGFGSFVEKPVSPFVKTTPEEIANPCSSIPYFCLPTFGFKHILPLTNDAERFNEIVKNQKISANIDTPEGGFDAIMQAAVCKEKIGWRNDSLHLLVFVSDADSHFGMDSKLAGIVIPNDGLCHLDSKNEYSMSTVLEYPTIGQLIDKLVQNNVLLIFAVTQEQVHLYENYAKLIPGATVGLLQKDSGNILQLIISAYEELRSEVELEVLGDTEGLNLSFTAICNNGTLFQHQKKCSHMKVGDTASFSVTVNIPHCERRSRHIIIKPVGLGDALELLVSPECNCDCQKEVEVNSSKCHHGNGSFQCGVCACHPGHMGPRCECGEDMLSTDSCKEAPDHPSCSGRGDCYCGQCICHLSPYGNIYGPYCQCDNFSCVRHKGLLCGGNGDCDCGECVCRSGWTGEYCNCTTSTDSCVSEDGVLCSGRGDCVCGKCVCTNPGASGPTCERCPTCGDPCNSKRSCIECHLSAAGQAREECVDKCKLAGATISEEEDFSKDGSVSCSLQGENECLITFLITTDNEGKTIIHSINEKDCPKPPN

First: CCCCCCOC(=O)N[C@@H](CNC(=O)c1cnn(CCc2ccc3c(n2)NCCC3)c1)C(=O)O [Example 160]
Second: CCCOC(=O)N[C@@H](CNC(=O)c1cnn(CCc2ccc3c(n2)NCCC3)c1)C(=O)O [Example 127]
The IC50 of the first is 2.1-fold lower: 0.0007 µM for the first, 0.0015 µM for the second.

First: CC(C)(C)c1cc(Br)cc([C@H](CC(=O)O)NC(=O)c2cnn(CCc3ccc4c(n3)NCCC4)c2)c1 [Example 22]
Second: CC(C)(C)c1cc(Br)cc([C@H](CC(=O)O)NC(=O)c2cnn(CCCc3ccc4c(n3)NCCC4)c2)c1 [Example 61]
The IC50 of the first is 26-fold lower: 0.0019 µM for the first, 0.049 µM for the second. The first is the more potent here.

First: COc1ccc([C@H](CC(=O)O)NC(=O)c2cn(CCc3ccc4c(n3)NCCC4)nc2C)cc1F [Example 54]
Second: COc1ccc([C@H](CC(=O)O)NC(=O)c2cnn(CCc3ccc4c(n3)NCCC4)c2CO)cc1F [Example 33]
The IC50 of the first is 3.2-fold higher: 0.03 µM for the first, 0.0094 µM for the second.

`O=C(NC[C@H](NS(=O)(=O)Cc1ccc(Cl)c(Cl)c1)C(=O)O)c1cnn(CCc2ccc3c(n2)NCCC3)c1` [Example 141] and `O=C(NC[C@H](NS(=O)(=O)Cc1ccc(Cl)cc1Cl)C(=O)O)c1cnn(CCc2ccc3c(n2)NCCC3)c1` [Example 165] are within 1.5-fold of each other in IC50: 0.0036 µM for the first, 0.0029 µM for the second.

Compared with `Cc1nc2c(cc1Cn1ncc(C(=O)N[C@@H](CC(=O)O)c3cc(Cl)cc(Cl)c3)n1)CCCN2` [Example 14, (S)-3-(3,5-Dichlorophenyl)-3-(2-((2-methyl-5,6,7,8-tetrahydro-1,8-naphthyridin-3-yl)methyl)-2H-1,2,3-triazole-4-carboxamido)propanoic acid], `O=C(O)C[C@H](NC(=O)c1cn(CCc2ccc3c(n2)NCCC3)cn1)c1cc(Cl)cc(Cl)c1` [Example 116] is 22-fold lower in IC50: 2.21 µM for the first, 0.102 µM for the second.

Compared with `COC(=O)C[C@H](NC(=O)c1cnn(CCc2ccc3c(n2)NCCC3)c1)c1cc(Br)cc(C(C)(C)C)c1` [Example 96], `CC(C)(C)c1cc(Br)cc([C@H](CC(=O)O)NC(=O)c2cnn(CCc3ccc4c(n3)NCCC4)c2CO)c1` [Example 26] is 220-fold lower in IC50: 1.1 µM for the first, 0.005 µM for the second.

Going from `O=C(O)CC(NC(=O)c1cnn(CCc2ccc3c(n2)NCCC3)c1CO)c1ccc(Cl)c(C(F)(F)F)c1` (stereo not drawn) [Example 35] to `O=C(O)CC(NC(=O)c1cnn(CCc2ccc3c(n2)NCCC3)c1CO)c1ccc(Cl)cc1` (stereo not drawn) [Example 67], the IC50 rises from 0.01 µM to 0.095 µM (9.5-fold).

`Cc1cc(C)c(C(=O)N[C@@H](CNC(=O)c2cnn(CCc3ccc4c(n3)NCCC4)c2)C(=O)O)c(C)c1` [Example 15, (S)-3-(1-(2-(5,6,7,8-Tetrahydro-1,8-naphthyridin-2-yl)ethyl)-1H-pyrazole-4-carboxamido)-2-(2,4,6-trimethylbenzamido)propanoic acid] and `CC(C)COC(=O)N[C@@H](CNC(=O)c1cnn(CCc2ccc3c(n2)NCCC3)c1)C(=O)O` [Example 131] are the same in IC50: 0.0009 µM for the first, 0.0009 µM for the second.

Going from `CCN(C(=O)c1cnn(CCc2ccc3c(n2)NCCC3)c1)C(CC(=O)O)c1ccc(OC)nc1` (stereo not drawn) [Example 17, 3-(N-Ethyl-1-(2-(5,6,7,8-tetrahydro-1,8-naphthyridin-2-yl)ethyl)-1H-pyrazole-4-carboxamido)-3-(6-methoxypyridin-3-yl)propanoic acid] to `COc1ccc([C@H](CC(=O)O)NC(=O)c2cnn(CCc3ccc4c(n3)NCCC4)c2)cn1` [Example 46], the IC50 falls from 0.363 µM to 0.021 µM (17-fold). The second is the more potent here.

Going from `COc1ccc([C@H](CC(=O)O)N(C)C(=O)c2cnn(CCc3ccc4c(n3)NCCC4)c2)cc1F` [Example 18] to `CN(C(=O)c1cnn(CCc2ccc3c(n2)NCCC3)c1)[C@@H](CC(=O)O)c1cc(Cl)cc(Cl)c1` [Example 25], the IC50 falls from 0.013 µM to 0.0031 µM (4.2-fold). The second is the more potent here.

First: COc1ccc([C@H](CC(=O)O)NC(=O)c2cnn(Cc3ccc4c(n3)NCCC4)c2)cn1 [Example 102]
Second: O=C(O)CC(NC(=O)c1cnn(CCc2ccc3c(n2)NCCC3)c1)c1ccc2c(c1)OCO2 (stereo not drawn) [Example 56]
The IC50 of the first is 54-fold higher: 1.98 µM for the first, 0.037 µM for the second.

First: COc1ccc([C@H](CC(=O)O)NC(=O)c2cnn(CCc3ccc4c(n3)NCCC4)c2COC(C)(C)C)cc1F [Example 50]
Second: CC(C)(C)OCc1c(C(=O)NC(CC(=O)O)c2cc(Cl)cc(Cl)c2)cnn1CCc1ccc2c(n1)NCCC2 (stereo not drawn) [Example 41]
The IC50 of the first is 1.9-fold higher: 0.026 µM for the first, 0.014 µM for the second.

First: Cc1ccc(C(CC(=O)O)NC(=O)c2cnn(CCc3ccc4c(n3)NCCC4)c2CO)cc1 (stereo not drawn) [Example 66]
Second: Cc1ccccc1[C@H](CC(=O)O)NC(=O)c1cnn(CCc2ccc3c(n2)NCCC3)c1CO [Example 92]
The IC50 of the first is 4.6-fold lower: 0.091 µM for the first, 0.416 µM for the second.

First: O=C(NC[C@H](NS(=O)(=O)Cc1ccccc1Cl)C(=O)O)c1cnn(CCc2ccc3c(n2)NCCC3)c1 [Example 155]
Second: O=C(NC[C@H](NS(=O)(=O)Cc1ccccc1F)C(=O)O)c1cnn(CCc2ccc3c(n2)NCCC3)c1 [Example 166]
The IC50 of the first is 1.8-fold lower: 0.0055 µM for the first, 0.01 µM for the second.

Going from `CC(C)(C)OCc1nn(CCc2ccc3c(n2)NCCC3)cc1C(=O)NC(CC(=O)O)c1ccc(C(F)(F)F)cc1` (stereo not drawn) [Example 95] to `Cc1ccc(Oc2cccc(C(CC(=O)O)NC(=O)c3cnn(CCc4ccc5c(n4)NCCC5)c3COC(C)(C)C)c2)cc1` (stereo not drawn) [Example 23], the IC50 falls from 1.05 µM to 0.0023 µM (460-fold).

Compared with `Cc1cc(C)c(S(=O)(=O)N[C@@H](CNC(=O)c2ccnn2CCc2ccc3c(n2)NCCC3)C(=O)O)c(C)c1` [Example 115], `Cc1cc(C)c(S(=O)(=O)N[C@H](CNC(=O)c2cnn(CCc3cc4c(nc3C)NCCC4)c2)C(=O)O)c(C)c1` [Example 81] is 6.3-fold higher in IC50: 0.034 µM for the first, 0.215 µM for the second.

First: O=C(N[C@@H](CNC(=O)c1cnn(CCc2ccc3c(n2)NCCC3)c1)C(=O)O)OCCF [Example 170]
Second: C=CCCOC(=O)N[C@@H](CNC(=O)c1cnn(CCc2ccc3c(n2)NCCC3)c1)C(=O)O [Example 135]
The IC50 of the first is 3.9-fold higher: 0.0055 µM for the first, 0.0014 µM for the second.

First: N[C@@H](CNC(=O)c1cnn(CCc2ccc3c(n2)NCCC3)c1)C(=O)O [Example 11, (S)-2-Amino-3-(1-(2-(5,6,7,8-tetrahydro-1,8-naphthyridin-2-yl)ethyl)-1H-pyrazole-4-carboxamido)propanoic acid]
Second: CCS(=O)(=O)N[C@@H](CNC(=O)c1cnn(CCc2ccc3c(n2)NCCC3)c1)C(=O)O [Example 126]
The IC50 of the first is 12-fold higher: 0.121 µM for the first, 0.01 µM for the second. The second is the more potent here.

First: N#Cc1cccc(CS(=O)(=O)N[C@@H](CNC(=O)c2cnn(CCc3ccc4c(n3)NCCC4)c2)C(=O)O)c1 [Example 169]
Second: O=C(NC[C@H](NS(=O)(=O)Cc1cccc(Br)c1)C(=O)O)c1cnn(CCc2ccc3c(n2)NCCC3)c1 [Example 156]
The IC50 of the first is 1.6-fold lower: 0.013 µM for the first, 0.021 µM for the second. The first is the more potent here.

Compared with `CN(C(=O)c1cn(CCc2ccc3c(n2)NCCC3)nc1C(F)(F)F)[C@@H](CC(=O)O)c1cc(Cl)cc(Cl)c1` [Example 48], `CN(C(=O)c1cnn(CCc2ccc3c(n2)NCCC3)c1)C(CC(=O)O)c1cc(Cl)cc(Cl)c1` (stereo not drawn) [Example 32] is 2.9-fold lower in IC50: 0.022 µM for the first, 0.0076 µM for the second.

Compared with `O=C(O)CC(CCc1ccccc1)NC(=O)c1cnn(CCc2ccc3c(n2)NCCC3)c1` (stereo not drawn) [Example 90], `Cc1cccc(CS(=O)(=O)N[C@@H](CNC(=O)c2cnn(CCc3ccc4c(n3)NCCC4)c2)C(=O)O)c1` [Example 143] is 36-fold lower in IC50: 0.401 µM for the first, 0.011 µM for the second.

First: COCCS(=O)(=O)N[C@@H](CNC(=O)c1cnn(CCc2ccc3c(n2)NCCC3)c1)C(=O)O [Example 147]
Second: O=C(NC[C@H](NS(=O)(=O)CCC(F)(F)F)C(=O)O)c1cnn(CCc2ccc3c(n2)NCCC3)c1 [Example 129]
The IC50 of the first is 4.7-fold higher: 0.014 µM for the first, 0.003 µM for the second. The second is the more potent here.

First: O=C(O)CC(NC(=O)c1cn(CCCc2ccc3c(n2)NCCC3)nc1CO)c1cc(Cl)cc(Cl)c1 (stereo not drawn) [Example 6, 3-(3,5-Dichlorophenyl)-3-(3-(hydroxymethyl)-1-(3-(5,6,7,8-tetrahydro-1,8-naphthyridin-2-yl)propyl)-1H-pyrazole-4-carboxamido)propanoic acid]
Second: O=C(O)C[C@H](NC(=O)c1cnn(CCCc2ccc3c(n2)NCCC3)c1)c1cc(Cl)cc(Cl)c1 [Example 60]
The IC50 of the first is 3.9-fold higher: 0.178 µM for the first, 0.046 µM for the second.

Compared with `Cc1cc(C)c(S(=O)(=O)N[C@@H](CNC(=O)c2ccn(Cc3cc4c(nc3C)NCCC4)c2)C(=O)O)c(C)c1` [Example 122], `O=C(NC[C@H](NS(=O)(=O)Cc1ccncc1)C(=O)O)c1cnn(CCc2ccc3c(n2)NCCC3)c1` [Example 167] is 4.5-fold lower in IC50: 0.043 µM for the first, 0.0095 µM for the second.

First: O=C(NC[C@H](NS(=O)(=O)Cc1ccccc1C(F)(F)F)C(=O)O)c1cnn(CCc2ccc3c(n2)NCCC3)c1 [Example 128]
Second: O=C(NC[C@H](NS(=O)(=O)Cc1ccc(C(F)(F)F)cc1)C(=O)O)c1cnn(CCc2ccc3c(n2)NCCC3)c1 [Example 150]
The IC50 of the first is 2.3-fold lower: 0.0025 µM for the first, 0.0057 µM for the second.

First: CC#CCOC(=O)N[C@@H](CNC(=O)c1cnn(CCc2ccc3c(n2)NCCC3)c1)C(=O)O [Example 162]
Second: CCN(C(=O)c1cnn(CCc2ccc3c(n2)NCCC3)c1)C(CC(C)=O)c1cc(Cl)cc(Cl)c1 (stereo not drawn) [Example 104]
The IC50 of the first is 1700-fold lower: 0.0022 µM for the first, 3.81 µM for the second. The first is the more potent here.

Compared with `O=C(O)CC(NC(=O)c1cnn(CCc2ccc3c(n2)NCCC3)c1CO)c1ccc2c(c1)OCO2` (stereo not drawn) [Example 65], `O=C(O)CC(NC(=O)c1cnn(CCc2ccc3c(n2)NCCC3)c1CO)c1cccc(F)c1` (stereo not drawn) [Example 75] is 2-fold higher in IC50: 0.064 µM for the first, 0.13 µM for the second. The first is the more potent here.

Compared with `CC(C)(C)OCc1c(C(=O)NC(CC(=O)O)c2cc(Cl)cc(Cl)c2)cnn1CCCc1ccc2c(n1)NCCC2` (stereo not drawn) [Example 59], `O=C(O)CC(NC(=O)c1cnn(CCc2ccc3c(n2)NCCC3)c1-c1ccccc1)c1cc(Cl)cc(Cl)c1` (stereo not drawn) [Example 69] is 2.8-fold higher in IC50: 0.04 µM for the first, 0.111 µM for the second. The first is the more potent here.

With `O=C(O)C[C@H](NC(=O)c1cnn(CCCNC2=NCCN2)c1)c1cc(Cl)cc(Cl)c1` [Example 8, (S)-3-(3,5-Dichlorophenyl)-3-(1-(3-((4,5-dihydro-1H-imidazol-2-yl)amino)propyl)-1H-pyrazole-4-carboxamido)propanoic acid] the IC50 was 0.041 µM.
